The values that follow come from patent US5691373A, “Nonpeptide endothelin antagonists I” (Warner-Lambert Company, priority 1995, dated 1997).

The structures appear in SMILES notation. Counter-ions that a name gives are not always drawn. Like-named read-outs stand apart in the source and are kept apart here.

The target of experiment [1] is T1, ETA (Oryctolagus cuniculus, UniProt A5A8K3).
T1 sequence (A5A8K3 21-427): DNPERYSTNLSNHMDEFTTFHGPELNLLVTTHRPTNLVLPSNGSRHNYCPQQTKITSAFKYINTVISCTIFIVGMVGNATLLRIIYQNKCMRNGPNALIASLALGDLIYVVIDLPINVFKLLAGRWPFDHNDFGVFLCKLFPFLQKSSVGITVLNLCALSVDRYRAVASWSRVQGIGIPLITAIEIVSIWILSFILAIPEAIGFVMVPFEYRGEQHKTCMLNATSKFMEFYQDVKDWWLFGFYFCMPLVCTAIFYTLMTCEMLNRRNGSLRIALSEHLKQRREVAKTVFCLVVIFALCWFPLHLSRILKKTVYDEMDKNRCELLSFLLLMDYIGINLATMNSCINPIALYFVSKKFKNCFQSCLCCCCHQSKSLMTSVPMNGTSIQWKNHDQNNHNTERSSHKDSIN
Particulars: ERBA-A IC50, [125I]-ET-1, rabbit renal artery vascular smooth muscle cells.

Another experiment deals with T2, human ETB receptor (Homo sapiens, UniProt P24530).
T2 construct: expressed in transfected cells; host or cells: CHO-K1 cells, pRc-CMW (so in the source) expression vector, electroporation; membranes used
T2 sequence (P24530 27-442): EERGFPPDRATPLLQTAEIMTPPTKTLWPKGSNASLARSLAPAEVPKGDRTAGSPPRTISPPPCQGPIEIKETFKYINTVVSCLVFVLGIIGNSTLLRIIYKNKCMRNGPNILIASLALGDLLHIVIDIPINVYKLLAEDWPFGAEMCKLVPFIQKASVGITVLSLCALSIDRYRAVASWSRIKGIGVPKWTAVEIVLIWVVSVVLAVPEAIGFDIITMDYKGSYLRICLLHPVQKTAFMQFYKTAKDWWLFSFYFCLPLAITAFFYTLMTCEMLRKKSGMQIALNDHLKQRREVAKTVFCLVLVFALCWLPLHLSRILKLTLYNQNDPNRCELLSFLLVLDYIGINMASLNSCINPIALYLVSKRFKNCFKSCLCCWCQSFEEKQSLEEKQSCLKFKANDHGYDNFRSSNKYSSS
Kind of experiment: ERBA-B: [125I]-ET-1 binding, recombinant human ETB receptor expressed in CHO-K1 cells. Particulars: human cloned ETB receptor, read-out: ERBA-B IC50, human cloned receptor data.

Experiment [2] addresses T1, ETA. Kind of experiment: VERA-A: antagonism of ET-1 stimulated vasoconstriction in the rabbit femoral artery (ETA). The format is cell-based. The conditions noted are these: ET-1, rabbit femoral artery; read-out: VERA-A pA2 (converted). The procedure:
Male New Zealand rabbits were killed by cervical dislocation and exsanguination. Femoral and pulmonary arteries were isolated, cleaned of connective tissue, and cut into 4-mm rings. The endothelium was denuded by placing the rings over hypodermic tubing (32 gauge for femoral rings and 28 gauge for pulmonary rings, Small Parts, Inc, Miami, Fla.) and gently rolling them. […] Resting tension was adjusted to 3.0 g for femoral and 4.0 g pulmonary arteries; the rings were left for 90 minutes to equilibrate.

For experiment [3], the target named is T1, ETA.
A further experiment has as its target T3, ETB (Rattus norvegicus, UniProt P21451).
T3 sequence (P21451 27-442): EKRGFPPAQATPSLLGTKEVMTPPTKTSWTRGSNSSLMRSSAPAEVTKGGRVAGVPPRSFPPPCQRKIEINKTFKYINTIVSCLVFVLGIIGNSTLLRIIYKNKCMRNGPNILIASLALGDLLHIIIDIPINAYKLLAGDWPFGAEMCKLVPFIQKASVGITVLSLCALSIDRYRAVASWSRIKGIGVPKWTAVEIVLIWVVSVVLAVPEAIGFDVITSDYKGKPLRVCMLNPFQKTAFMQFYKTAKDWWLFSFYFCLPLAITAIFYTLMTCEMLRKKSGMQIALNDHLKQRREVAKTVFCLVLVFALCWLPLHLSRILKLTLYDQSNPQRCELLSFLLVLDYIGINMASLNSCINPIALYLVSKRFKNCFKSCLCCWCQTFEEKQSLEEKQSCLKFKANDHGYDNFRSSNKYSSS

A word on the IC50: it is the midpoint of a concentration-inhibition curve. As for `COc1ccc(C2(O)OC(=O)C(c3ccc4c(c3)OCO4)=C2Cc2ccc(OC)c(Cl)c2)cc1` (centres unmarked) [Example 92, 3-Benzo[1,3]dioxol-5-yl-4-(3-chloro-4-methoxybenzyl)-5-hydroxy-5-(4-methoxyphenyl)-5H-furan-2-one], the results for the IC50 at ETA [1] and at human ETB receptor were 4 nM and 1400 nM, respectively. Further, the Kb on ETA [2] is 251 nM.
The matching figures for `COc1ccc(C2(O)OC(=O)C(c3cc(OC)c4c(c3)OCO4)=C2Cc2ccccc2)cc1` (centres unmarked) [Example 301, 4-Benzyl-5-hydroxy-3-(7-methoxy-benzo[1,3]dioxol-5-yl)-5(4-methoxy-phenyl)-5H-furan-2-one]: 5.6 nM, 660 nM and 100 nM.
For `COc1ccc(C2(O)OC(=O)C(c3cc(OC)c4c(c3)OCO4)=C2Cc2ccccc2)cc1C` (centres unmarked) [Example 360, 4-Benzyl-5-hydroxy-3-(7-methoxy-benzo[1,3]dioxol-5-yl)-5-(4-methoxy-3-methyl-phenyl)-5H-furan-2-one] the same measures were 9.9 nM, 1350 nM and 100 nM.
For `CCCCOc1ccc(CC2=C(c3ccc4c(c3)OCO4)C(=O)OC2(O)c2ccc(OC)cc2)cc1` (centres unmarked) [Example 93, 3-Benzo[1,3]dioxol-5-yl-4-(4-butoxybenzyl)-5-hydroxy-5-(4-methoxyphenyl)-5H -furan-2-one] the same measures were 5.2 nM, 220 nM and 1000 nM.
As for `COc1ccc(C2(O)OC(=O)C(c3ccc4c(c3)OCO4)=C2Cc2cc(OC)c(OC)c(OC)c2)cc1` (centres unmarked) [Example 281, 3-benzo[1,3]dioxol-5-yl-5-hydroxy-5-(4-methoxyphenyl)-4-(3,4,5-trimethoxybenzyl)-5H-furan-2-one], the IC50 against ETA [1] turned out to be 0.6 nM; at ETA [3] it was 7700 nM.
`COc1cc(OC)cc(C2=C(Cc3cc(OC)c(OC)c(OC)c3)C(O)(c3ccc(OC)c(C)c3)OC2=O)c1` (centres unmarked) [Example 382, 3-(3,5-Dimethoxy-phenyl)-5-hydroxy-5-(4-methoxy-3-methyl-phenyl)-4-(3,4,5-trimethoxy-benzyl)-5H-furan-2-one]: the half-maximal inhibitory concentration (IC50) is 0.9 nM against ETA [1] and > 250 nM on human ETB receptor. In addition, the Kb at ETA [2] is 158 nM.
For `COc1ccc(C(=O)/C(Cc2ccc(OC(C)C)cc2)=C(\C(=O)O)c2ccc3c(c2)OCO3)cc1` [Example 352, 1,3-Benzodioxol-5-acetic acid, α-[2-(4-methoxyphenyl)-1-[[4-(1-methylethoxy)phenyl]methyl]-2-oxoethylene]-, (Z)-, choline salt] the same measures were 5 nM, 1250 nM and 63.1 nM.
`COc1ccc(C2(O)OC(=O)C(c3ccc4c(c3)OCO4)=C2Cc2ccc(OC(C)C)cc2)cc1` (centres unmarked) [Example 84, 3-Benzo[1,3]dioxol-5-yl-5-hydroxy-4-(isopropoxybenzyl)-5-(4-methoxyphenyl)-5H-furan-2-one]: the IC50 on ETA [1] worked out at 3.3 nM; on human ETB receptor it was 1400 nM. In addition, the Kb on ETA [2] is 158 nM.
For `COC(=O)c1cccc(C/C(C(=O)c2ccc(OC)cc2)=C(/C(=O)O)c2ccc3c(c2)OCO3)c1` [Example 405, 1,3-Benzodioxol-5-acetic acid, α-[1-[[3-(methoxycarbonyl)phenyl]methyl]-2-(4-methoxyphenyl)-2-oxoethylene]-, monopotassium salt] the same measures were 7.4 nM, 2700 nM and 251 nM.
The matching figures for `COc1ccc(C2(O)OC(=O)C(c3cc(OC)c4c(c3)OCO4)=C2Cc2cc(OC)c(OC)c(OC)c2)cc1` (centres unmarked) [Example 356, 5-Hydroxy-3-(7-methoxy-benzo[1,3]dioxol-5-yl)-5-(4-methoxy-phenyl)-4-(3,4,5-trimethoxy-benzyl)-5H-furan-2-one]: 0.25 nM, 340 nM and 20 nM.
The matching figures for `COc1ccc(C2(O)OC(=O)C(c3ccc4c(c3)OCO4)=C2Cc2ccc(NC(C)=O)cc2)cc1` (centres unmarked) [Example 80, N-{4-[4-Benzo[1,3]dioxol-5-yl-2-hydroxy-2-(4-methoxyphenyl)-5-oxo-2,5-dihydro-furan-3-ylmethyl]-phenyl}-acetamide]: 1.4 nM, 880 nM and 63.1 nM.
On to `COc1ccc(CC2=C(c3cc(OC)cc(OC)c3)C(=O)OC2(O)c2ccc(OC)cc2)cc1` (centres unmarked) [Example 131, 3-(3,5-Dimethoxyphenyl)-5-hydroxy-4-(4-methoxybenzyl)-5-(4-methoxyphenyl)-5H-furan-2-one], for which the IC50 against ETA [1] stood at 15 nM; at human ETB receptor, 1350 nM. Moreover, the Kb on ETA [2] was 501 nM.
As to `C=CCOc1cc(CC2=C(c3ccc4c(c3)OCO4)C(=O)OC2(O)c2ccc(OC)cc2)ccc1OC` (centres unmarked) [Example 163, 4-(3-Allyloxy-4-methoxybenzyl)-3-benzo[1,3]dioxol-5-yl-5-hydroxy-5-(4-methoxyphenyl)-5H-furan-2-one], the IC50 at ETA [1] was 20 nM; on human ETB receptor, 880 nM. Further, the Kb at ETA [2] was 126 nM.
The matching figures for `COc1ccc(C2(O)OC(=O)C(c3ccc4c(c3)OCO4)=C2Cc2ccc(OC)c(C)c2C)cc1` (centres unmarked) [Example 254, 3-Benzo[1,3]dioxol-5-yl-5-hydroxy-4-(4-methoxy-2,3-dimethylbenzyl)-5-(4-methoxyphenyl)-5H-furan-2-one]: 17 nM, 2900 nM and 200 nM.
The matching figures for `COc1ccc(C2(O)OC(=O)C(c3cc(OC)c4c(c3)OCO4)=C2Cc2cc(OC)c(OC)c(OC)c2)cc1C` (centres unmarked) [Example 361, 5-Hydroxy-3-(7-methoxy-benzo[1,3]dioxol-5-yl)-5-(4-methoxy-3-methyl-phenyl) -4-(3,4,5-trimethoxy-benzyl)-5H-furan-2-one]: 2 nM, 220 nM and 39.8 nM.
With `COc1ccc(C2(O)OC(=O)C(c3ccc4c(c3)OCO4)=C2Cc2ccc(S(C)(=O)=O)cc2)cc1` (centres unmarked) [Example 237, 3-Benzo[1,3]dioxol-5-yl-5-hydroxy-4-(4-methanesulfonylbenzyl)-5-(4-methoxyphenyl)-5H-furan-2-one], the IC50 was 11 nM at ETA [1] and > 2500 nM at human ETB receptor. In addition, the Kb at ETA [2] was 631 nM.
As to `COc1cc(OC)cc(/C(C(=O)O)=C(\Cc2ccc(NC(C)=O)cc2)C(=O)c2ccc(OC)c(C)c2)c1` [Example 386, Potassium 3-(4-Acetylamino-benzyl)-2-(3,5-dimethoxyphenyl)-4-(4-methoxy-3-methyl-phenyl)-4-oxo-but-2-enoate], the results for the IC50 at ETA [1] and at human ETB receptor were 5 nM and 2100 nM, respectively. Further, the Kb at ETA [2] is 126 nM.
In the case of `COc1ccc(C(=O)/C(Cc2ccccc2)=C(\C(=O)O)c2ccc3c(c2)OCO3)cc1` [Example 351, Sodium 2-benzo[1,3]dioxol-5-yl-3-benzyl-4-(4-methoxyphenyl)-4-oxobut-2-enoate], the IC50 on ETA [1] was 16 nM; on human ETB receptor, > 250 nM. Besides, at ETA [2], the Kb is 631 nM.
Turning to `C=CCOc1cc(CC2=C(c3cc(OC)cc(OC)c3)C(=O)OC2(O)c2ccc(OC)cc2)ccc1OC` (centres unmarked) [Example 135, 4-(3-Allyloxy-4-methoxybenzyl)-3-(3,5-dimethoxyphenyl)-5-hydroxy-5-(4-methoxyphenyl)-5H-furan-2-one], the figures for the IC50 against ETA [1] and at ETB were 9 nM and 330 nM, respectively. Also, on ETA [2], the Kb was 126 nM.
